Experimental data: US11541104B2, “Method for preventing or treating osteoporosis, characterized by administering teriparatide or salt thereof at a frequency of twice a week” (ASAHI KASEI PHARMA CORPORATION, priority 2018, dated 2023)

How the values were obtained:
Assay type in all cases: in vivo, rabbit
[1] = tested on: six-month old female rabbits; experiment: Bone strength of tibiae of rabbits, three-point bending strength; conditions: for Maximum load, bone strength of tibiae: 140 μg/kg per week, subcutaneous, 4 weeks; for Maximum load, three-point bending strength of the tibiae: versus control group
Method: (§1) To evaluate the influences of the administration frequencies of teriparatide on the bone metabolism and the bone tissue morphology, six-month old female rabbits were subcutaneously administered with an agent in a manner that a weekly dosage of teriparatide was adjusted to 140 μg/kg at a frequency of once a week, twice a week or seven times a week over 4 weeks, or with a control drug without containing teriparatide at a frequency of seven times a week over 4 weeks (Table 2-54). Also, the bone mineral density and the bone strength of the tibiae were measured. The teriparatide solution which was administered was appropriately prepared by dissolving teriparatide acetate in a water for injection, filtering the solution, filling the filtrate in a vial, freeze-drying to give a preparation, and dissolving the preparation in a physiological saline upon use.
Three-point bending strength of the tibiae collected after the end of the administration period was measured.

[2] = tested on: six-month old female rabbits; experiment: Bone tissue morphology of diaphysis of tibiae of rabbits
Method: as §1

[3] = tested on: six-month old female rabbits; experiment: Bone mineral densities of tibiae of rabbits (Working Example 2); conditions: 4 weeks; for Bone mineral densities in proximal part (1/5 site) of the tibiae: 140 μg/kg per week; for Bone mineral densities in the proximal part (1/5 site) of the tibiae: weekly dosage 140 μg/kg
Method: as §1
The bone mineral densities of the tibiae were analyzed in divided regions.

[4] = group administered seven times a week
[5] = group administered twice a week

Compound: CC[C@H](C)[C@H](NC(=O)[C@H](CCC(=O)O)NC(=O)[C@H](CO)NC(=O)[C@@H](NC(=O)[C@@H](N)CO)C(C)C)C(=O)N[C@@H](CCC(N)=O)C(=O)N[C@@H](CC(C)C)C(=O)N[C@@H](CCSC)C(=O)N[C@@H](Cc1cnc[nH]1)C(=O)N[C@@H](CC(N)=O)C(=O)N[C@@H](CC(C)C)C(=O)NCC(=O)N[C@@H](CCCCN)C(=O)N[C@@H](Cc1cnc[nH]1)C(=O)N[C@@H](CC(C)C)C(=O)N[C@@H](CC(N)=O)C(=O)N[C@@H](CO)C(=O)N[C@@H](CCSC)C(=O)N[C@@H](CCC(=O)O)C(=O)N[C@@H](CCCN=C(N)N)C(=O)N[C@H](C(=O)N[C@@H](CCC(=O)O)C(=O)N[C@@H](Cc1c[nH]c2ccccc12)C(=O)N[C@@H](CC(C)C)C(=O)N[C@@H](CCCN=C(N)N)C(=O)N[C@@H](CCCCN)C(=O)N[C@@H](CCCCN)C(=O)N[C@@H](CC(C)C)C(=O)N[C@@H](CCC(N)=O)C(=O)N[C@@H](CC(=O)O)C(=O)N[C@H](C(=O)N[C@@H](Cc1cnc[nH]1)C(=O)N[C@@H](CC(N)=O)C(=O)N[C@@H](Cc1ccccc1)C(=O)O)C(C)C)C(C)C [teriparatide]
- Maximum load, bone strength of tibiae ([1]; Group administered once a week): 583.81 N
- Maximum load, bone strength of tibiae ([1]; Group administered seven times a week): 656.09 N
- Maximum load, bone strength of tibiae ([1]; Group administered twice a week): 624.41 N
- Maximum load, three-point bending strength of the tibiae [1, 4]: higher values
- Maximum load, three-point bending strength of the tibiae [1, 5]: higher values
- Bone tissue morphology of diaphysis of tibiae ([2]; group administered once a week): none of these findings were observed
- Bone tissue morphology of diaphysis of tibiae [2, 4]: formation of trabecular bones on the endocortical surfaces, a large number of intracortical voids (increase of cortical porosity), and disorderedness in a lamellar structure were observed
- Bone tissue morphology of diaphysis of tibiae [2, 5]: none of these findings were observed
- Bone mineral densities in proximal part (1/5 site) of the tibiae ([3]; Group administered once a week, subcutaneous): 272.5 ± 13.6 mg/cm^2
- Bone mineral densities in proximal part (1/5 site) of the tibiae ([3]; Group administered twice a week, subcutaneous): 278.8 ±9.8 mg/cm^2
- Bone mineral densities in the proximal part (1/5 site) of the tibiae [3, 5]: higher value than that of the group administered once a week
- Bone mineral densities in the proximal part (1/5 site) of the tibiae ([3]; subcutaneous, as compared to control group): remarkably increased
